# Experimental data taken from the supplement of paper PMC11451515.
# Test system: NOMO1
# Assay: cell viability relative to DMSO control; higher = less cytotoxic
# Details: 48 h
# In short: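 Viability was expressed as a per-plate percentage of DMSO wells, with cell-free wells as background. Leukemia cells (NOMO1 or SEM at 500 cells/well, P12-Ichikawa at 1000 cells/well) were adapted for at least four passages in each medium and seeded in 1536-well plates (5 μl). Library compounds in DMSO were pin-dosed over an 11-point threefold series from 47 μM to 0.79 nM, and CellTiter-Glo One luminescence was read after 48 h at 37°C.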
# [1] = RPMI 5 mM glucose + 10% dialyzed FBS, 0.000781 µM
# [2] = RPMI 5 mM glucose + 10% dialyzed FBS, 0.00234 µM
# [3] = RPMI 5 mM glucose + 10% dialyzed FBS, 0.00702 µM
# [4] = RPMI 5 mM glucose + 10% dialyzed FBS, 0.0211 µM
# [5] = RPMI 5 mM glucose + 10% dialyzed FBS, 0.0632 µM
# [6] = RPMI 5 mM glucose + 10% dialyzed FBS, 0.19 µM
# [7] = RPMI 5 mM glucose + 10% dialyzed FBS, 0.569 µM
# [8] = RPMI 5 mM glucose + 10% dialyzed FBS, 1.71 µM
# [9] = RPMI 5 mM glucose + 10% dialyzed FBS, 5.12 µM
# [10] = RPMI 5 mM glucose + 10% dialyzed FBS, 15.4 µM
# [11] = RPMI 5 mM glucose + 10% dialyzed FBS, 46.1 µM
# [12] = HPLM + 10% dialyzed FBS, 0.000781 µM
# [13] = HPLM + 10% dialyzed FBS, 0.00234 µM
# [14] = HPLM + 10% dialyzed FBS, 0.00702 µM
# [15] = HPLM + 10% dialyzed FBS, 0.0211 µM
# [16] = HPLM + 10% dialyzed FBS, 0.0632 µM
# [17] = HPLM + 10% dialyzed FBS, 0.19 µM
# [18] = HPLM + 10% dialyzed FBS, 0.569 µM
# [19] = HPLM + 10% dialyzed FBS, 1.71 µM
# [20] = HPLM + 10% dialyzed FBS, 5.12 µM
# [21] = HPLM + 10% dialyzed FBS, 15.4 µM
# [22] = HPLM + 10% dialyzed FBS, 46.1 µM
# [23] = RPMI 5 mM glucose + 10% FBS, 0.000781 µM
# [24] = RPMI 5 mM glucose + 10% FBS, 0.00234 µM
# [25] = RPMI 5 mM glucose + 10% FBS, 0.00702 µM
# [26] = RPMI 5 mM glucose + 10% FBS, 0.0211 µM
# [27] = RPMI 5 mM glucose + 10% FBS, 0.0632 µM
# [28] = RPMI 5 mM glucose + 10% FBS, 0.19 µM
# [29] = RPMI 5 mM glucose + 10% FBS, 0.569 µM
# [30] = RPMI 5 mM glucose + 10% FBS, 1.71 µM
# [31] = RPMI 5 mM glucose + 10% FBS, 5.12 µM
# [32] = RPMI 5 mM glucose + 10% FBS, 15.4 µM
# [33] = RPMI 5 mM glucose + 10% FBS, 46.1 µM
Structure (SMILES),cell viability [1] [%],cell viability [2] [%],cell viability [3] [%],cell viability [4] [%],cell viability [5] [%],cell viability [6] [%],cell viability [7] [%],cell viability [8] [%],cell viability [9] [%],cell viability [10] [%],cell viability [11] [%],cell viability [12] [%],cell viability [13] [%],cell viability [14] [%],cell viability [15] [%],cell viability [16] [%],cell viability [17] [%],cell viability [18] [%],cell viability [19] [%],cell viability [20] [%],cell viability [21] [%],cell viability [22] [%],cell viability [23] [%],cell viability [24] [%],cell viability [25] [%],cell viability [26] [%],cell viability [27] [%],cell viability [28] [%],cell viability [29] [%],cell viability [30] [%],cell viability [31] [%],cell viability [32] [%],cell viability [33] [%]
CNC(=O)CN1CCC(Oc2cc3c(Nc4cccc(Cl)c4F)ncnc3cc2OC)CC1,116,122,138,133,141,144,52.7,41.8,32.1,33.7,31.7,,,,,,,,,,,,,,,,,,,,,,
c1ccc(-c2oc3ncnc(NC[C@@H]4CCCO4)c3c2-c2ccccc2)cc1,,,,,,,,,,,,114,113,134,113,134,128,123,126,112,103,62,102,110,112,114,120,120,117,109,110,112,63.8
Cc1c(C)c2c(c(C)c1O)CCC(C)(COc1ccc(CC3SC(=O)NC3=O)cc1)O2 (stereo unspecified),,,,,,,,,,,,122,123,114,133,125,126,142,138,132,116,125,,,,,,,,,,,
C[C@@H](O)[C@@H]1NC(=O)[C@H](CCCCN)NC(=O)[C@@H](Cc2c[nH]c3ccccc23)NC(=O)[C@H](Cc2ccccc2)NC(=O)[C@@H](NC(=O)[C@H](N)Cc2ccccc2)CSSC[C@@H](C(=O)N[C@H](CO)[C@@H](C)O)NC1=O,86.9,89,87,92.2,93.6,85.3,101,92.5,91.2,103,112,75.7,75,90,88.1,103,83.6,91.8,82.5,74.2,81.8,75.9,74.6,79.4,83.1,79.3,83.3,81.6,84.5,76.8,80.7,81.1,83.5
C=CCc1ccc(O)c(-c2ccc(O)c(CC=C)c2)c1,114,106,107,112,119,111,91.4,54.7,47.9,58.9,53.8,111,117,112,120,112,94.8,90.6,93.4,84.3,86.8,88.7,107,105,119,118,122,112,95.3,61,51,60.4,62.6
Cc1cccc(/C=N/Nc2cc(N3CCOCC3)nc(OCCc3ccccn3)n2)c1,99.8,93,90.9,98.6,95.4,85.8,75.9,38.7,15.1,18.8,17.5,101,106,111,107,90.2,97.9,94.5,77.5,41.5,34.4,24.3,98.8,107,97.9,99.5,87.6,97,77.2,68.2,19.3,22.6,21.4
COc1cc(C(=O)NS(=O)(=O)c2ccccc2C)ccc1Cc1cn(C)c2ccc(NC(=O)OC3CCCC3)cc12,68,84.5,76.4,92.9,88.8,99.7,83.5,81.6,86.1,81.2,6.79,66.5,66.3,75.8,91.5,79.7,77.8,87.3,87.3,87.1,83.8,31.1,77.7,86.9,79.6,80.1,77.6,86.5,82.4,87.6,85.2,80.4,18.9
CC[C@]1(O)C[C@@H]2CN(CCc3c([nH]c4ccccc34)[C@@](C(=O)OC)(c3cc4c(cc3OC)N(C)[C@H]3[C@@](O)(C(N)=O)[C@H](O)[C@]5(CC)C=CCN6CC[C@]43[C@@H]65)C2)C1,116,114,106,122,121,44.6,24.6,28.2,24.2,23.6,20.7,,,,,,,,,,,,110,113,132,103,96.4,25.3,21.1,25.8,21.4,22.8,21
C[S+](=O)([O-])c1ccc(Oc2cc(F)cc(C#N)c2)c2c1[C@H](O)C(F)(F)C2,97.4,102,103,109,111,127,123,125,117,125,114,96.5,123,123,112,119,119,139,126,112,120,121,92.7,111,101,103,119,117,101,112,124,108,114
